We go through eleven compounds from patent US12090220B2, “Efficient sunscreen compositions with diethylamino hydroxybenzoyl hexyl benzoate, butyl methoxydibenzoylmethane and organic particulate UV filter” (BASF SE, priority 2019, dated 2024).

Structures are written as SMILES. Structures can show the parent of a compound that is named as a salt.

One series can be described thus: Measurement of interfacial tension (polarity index) of emollients. Particulars: interfacial tension emollient/water, Tensimat Densimat TD2000. It counts as physicochemical. From the text: The term “polarity index” refers to non-polar or polar oils. Non-polar oils are mainly based on hydrocarbons and lack an electronegative element, such as oxygen. In contrast, polar oils contain heteroatoms that differ in electronegativity, which results in a dipole moment. However, such oils are still insoluble in water, i.e. hydrophob. The polarity index can be determined by measuring the interfacial tension between the respective oil and water.
Interfacial tension of the respective emollients as listed below was measured using a Tensimat Densimat TD2000.
`CCCCOC(=O)CCCCC(=O)OCCCC` [dibutyl adipate]: the polarity index worked out at 14 mN/m.

Consider `CC(C)OC(=O)CCCCC(=O)OC(C)C` [diisopropyl adipate], for which the polarity index stood at 12 mN/m.

`CC(C)OC(=O)CCCCCCCCC(=O)OC(C)C` [diisopropyl sebacate]: the polarity index was determined as 19 mN/m.

Compound `CCCCCCCCCCC(CO)CCCCCCCC` (centres unmarked) [octyldodecanol] yielded a polarity index of 25 mN/m.

In the case of `O=C(OCCc1ccccc1)c1ccccc1` [phenethyl benzoate], the polarity index was found to be 19 mN/m.

As for `CCCCOC(=O)CC(O)(CC(=O)OCCCC)C(=O)OCCCC` [tributyl citrate], the polarity index stood at 10 mN/m.

As to `CCOC(=O)CC(O)(CC(=O)OCC)C(=O)OCC` [triethyl citrate], the polarity index was determined as 7 mN/m.

Test in a further series: not given
Particulars: general description of the UV filter; cited from earlier work.
Take `COc1ccc(C(=O)CC(=O)c2ccc(C(C)(C)C)cc2)cc1` [BMDBM, 1-(4-(1,1-dimethylethyl)phenyl)-3-(4-methoxyphenyl)propane-1,3-dione]: the absorption maximum is listed as 357 nm.

As for `CCCCCCOC(=O)c1ccccc1C(=O)c1ccc(N(CC)CC)cc1O` [DHHB, hexyl 2-[4-(diethylamino)-2-hydroxybenzoyl]benzoate], the absorption maximum is reported as 354 nm.

As to `CCCCC(CC)COC(=O)/C=C/c1ccc(OC)cc1` (centres unmarked) [ethylhexyl methoxy cinnamate, 2-Ethylhexyl-(2E)-3-(4-methoxyphenyl)acrylate], the absorption maximum is 310 nm.

As for `c1ccc(-c2ccc(-c3nc(-c4ccc(-c5ccccc5)cc4)nc(-c4ccc(-c5ccccc5)cc4)n3)cc2)cc1` [tris-biphenyl triazine, 2,4,6-Tris(biphenyl-4-yl)-1,3,5-triazine], the absorption maximum is on record as 310 nm.
